Data taken from patent publication US20210070748A1, “INHIBITORS OF BRUTONS TYROSINE KINASE” (Pharmacyclics LLC, priority 2015, published 2021).
pIC50: −log10 of the molar value.

Tests used:
Type in all cases: biochemical
BTK-WT = molecular target: T1, BTK-WT (Homo sapiens, UniProt Q06187); test: Btk in vitro inhibitory activity (one of Method A TR-FRET, Method B electrophoretic mobility shift, Method C radiometric filter binding); conditions: E compounds, Table 17; read-out: IC50 BTK-WT
T1 construct: purified from insect cells as a full-length construct containing an N-terminal 6X-His tag; His6 (N); made in house; host or cells: insect cells (baculovirus Sf21 in Method B)
T1 sequence (Q06187 whole entry): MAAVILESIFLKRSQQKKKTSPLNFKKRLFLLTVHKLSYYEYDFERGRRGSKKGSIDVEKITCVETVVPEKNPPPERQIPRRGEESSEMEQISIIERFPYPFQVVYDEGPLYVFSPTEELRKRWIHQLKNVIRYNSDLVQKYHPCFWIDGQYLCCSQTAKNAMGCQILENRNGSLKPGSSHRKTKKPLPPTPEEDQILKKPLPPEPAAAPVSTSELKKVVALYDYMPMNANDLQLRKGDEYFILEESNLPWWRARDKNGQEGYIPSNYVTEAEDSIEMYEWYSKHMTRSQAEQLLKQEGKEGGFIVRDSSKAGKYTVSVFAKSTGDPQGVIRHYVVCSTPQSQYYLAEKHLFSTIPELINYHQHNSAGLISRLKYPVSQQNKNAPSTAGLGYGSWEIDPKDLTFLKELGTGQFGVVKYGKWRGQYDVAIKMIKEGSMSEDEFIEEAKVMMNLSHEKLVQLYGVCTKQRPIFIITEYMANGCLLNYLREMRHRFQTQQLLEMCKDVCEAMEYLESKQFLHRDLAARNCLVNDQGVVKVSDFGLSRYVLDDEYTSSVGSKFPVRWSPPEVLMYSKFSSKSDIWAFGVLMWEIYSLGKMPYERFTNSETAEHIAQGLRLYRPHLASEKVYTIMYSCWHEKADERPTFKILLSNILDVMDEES

ITK = molecular target: T2, ITK (Homo sapiens, UniProt Q08881); test: Inhibition of a panel of kinases, in vitro HotSpot kinase assay: ITK; conditions: E compounds, Table 17
T2 sequence (Q08881 1-620): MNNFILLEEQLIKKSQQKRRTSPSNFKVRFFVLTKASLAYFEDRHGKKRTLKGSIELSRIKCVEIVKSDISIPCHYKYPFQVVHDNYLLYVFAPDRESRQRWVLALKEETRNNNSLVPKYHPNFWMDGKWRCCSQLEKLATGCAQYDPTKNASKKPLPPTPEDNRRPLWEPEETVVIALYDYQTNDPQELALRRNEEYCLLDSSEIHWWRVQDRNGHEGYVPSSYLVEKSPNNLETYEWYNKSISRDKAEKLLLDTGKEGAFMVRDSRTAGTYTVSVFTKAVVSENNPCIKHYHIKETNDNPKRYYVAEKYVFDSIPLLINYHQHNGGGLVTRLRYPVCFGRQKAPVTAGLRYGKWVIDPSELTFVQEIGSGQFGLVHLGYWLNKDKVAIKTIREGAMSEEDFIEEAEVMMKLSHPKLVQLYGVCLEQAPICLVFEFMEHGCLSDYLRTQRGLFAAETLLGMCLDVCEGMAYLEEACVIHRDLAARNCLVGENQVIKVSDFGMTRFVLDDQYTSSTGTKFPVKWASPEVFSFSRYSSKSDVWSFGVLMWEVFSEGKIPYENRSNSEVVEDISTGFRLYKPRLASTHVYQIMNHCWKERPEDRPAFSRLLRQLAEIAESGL
Procedure: (§1) The degree of inhibition of a panel of kinases is determined using the in vitro HotSpot kinase assay (purified enzymes, ^33P-ATP, an appropriate substrate and 1 μM ATP).

EGFR = EGFR (Homo sapiens, UniProt P00533); test: Inhibition of a panel of kinases, in vitro HotSpot kinase assay: EGFR; conditions: E compounds, Table 17
Sequence of EGFR (P00533 25-1210): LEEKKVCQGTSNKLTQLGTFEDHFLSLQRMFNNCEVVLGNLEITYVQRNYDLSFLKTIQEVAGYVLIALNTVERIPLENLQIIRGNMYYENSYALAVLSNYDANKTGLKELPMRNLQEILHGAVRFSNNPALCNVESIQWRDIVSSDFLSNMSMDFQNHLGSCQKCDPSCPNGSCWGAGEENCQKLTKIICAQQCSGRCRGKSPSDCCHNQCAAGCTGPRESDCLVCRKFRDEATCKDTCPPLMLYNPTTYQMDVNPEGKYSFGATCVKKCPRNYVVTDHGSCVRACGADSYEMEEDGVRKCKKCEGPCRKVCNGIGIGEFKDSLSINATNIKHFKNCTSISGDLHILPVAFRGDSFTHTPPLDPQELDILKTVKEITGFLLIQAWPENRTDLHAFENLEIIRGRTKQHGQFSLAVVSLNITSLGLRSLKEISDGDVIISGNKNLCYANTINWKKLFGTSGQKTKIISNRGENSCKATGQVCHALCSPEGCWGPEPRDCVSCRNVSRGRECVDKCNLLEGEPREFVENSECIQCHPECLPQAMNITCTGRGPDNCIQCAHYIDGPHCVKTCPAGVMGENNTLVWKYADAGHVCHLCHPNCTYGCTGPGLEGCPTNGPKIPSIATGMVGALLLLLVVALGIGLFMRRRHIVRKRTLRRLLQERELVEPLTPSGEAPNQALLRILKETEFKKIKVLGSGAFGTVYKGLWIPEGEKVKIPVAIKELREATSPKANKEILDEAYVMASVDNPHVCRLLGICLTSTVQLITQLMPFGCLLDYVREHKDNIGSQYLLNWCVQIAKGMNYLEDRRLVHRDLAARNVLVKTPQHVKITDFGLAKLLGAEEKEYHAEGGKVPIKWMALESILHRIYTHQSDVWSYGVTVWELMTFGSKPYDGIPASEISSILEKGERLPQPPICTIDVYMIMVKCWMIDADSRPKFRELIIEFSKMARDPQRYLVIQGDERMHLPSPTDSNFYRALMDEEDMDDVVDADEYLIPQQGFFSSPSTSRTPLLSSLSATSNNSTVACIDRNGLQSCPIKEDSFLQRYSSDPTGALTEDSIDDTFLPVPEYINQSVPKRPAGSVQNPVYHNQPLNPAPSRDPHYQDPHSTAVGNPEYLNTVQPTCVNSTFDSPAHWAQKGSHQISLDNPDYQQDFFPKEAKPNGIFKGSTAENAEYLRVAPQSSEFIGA
Procedure: as §1

TEC = molecular target: T3, TEC (Homo sapiens, UniProt P42680); test: Inhibition of a panel of kinases, in vitro HotSpot kinase assay: TEC; conditions: E compounds, Table 17
T3 sequence (P42680 1-631): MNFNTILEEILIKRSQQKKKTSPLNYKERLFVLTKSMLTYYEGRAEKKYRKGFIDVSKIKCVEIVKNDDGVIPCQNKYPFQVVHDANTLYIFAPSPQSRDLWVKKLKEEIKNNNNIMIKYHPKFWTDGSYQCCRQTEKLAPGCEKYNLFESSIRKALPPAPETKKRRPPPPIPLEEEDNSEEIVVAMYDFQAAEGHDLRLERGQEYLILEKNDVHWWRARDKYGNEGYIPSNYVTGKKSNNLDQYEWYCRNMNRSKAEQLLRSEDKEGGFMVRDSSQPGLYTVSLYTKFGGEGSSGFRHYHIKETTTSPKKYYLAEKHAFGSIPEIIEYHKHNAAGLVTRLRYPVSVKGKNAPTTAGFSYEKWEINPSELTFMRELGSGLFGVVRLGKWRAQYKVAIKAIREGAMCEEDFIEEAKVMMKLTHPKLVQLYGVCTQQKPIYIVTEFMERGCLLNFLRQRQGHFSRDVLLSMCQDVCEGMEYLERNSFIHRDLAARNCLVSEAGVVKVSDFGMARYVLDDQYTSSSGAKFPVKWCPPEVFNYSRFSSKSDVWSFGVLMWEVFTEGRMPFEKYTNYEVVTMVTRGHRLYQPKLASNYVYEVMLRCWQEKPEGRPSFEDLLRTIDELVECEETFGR
Procedure: as §1

SMILES | pIC50 (BTK-WT) | pIC50 (ITK) | pIC50 (EGFR) | pIC50 (TEC)
C=CC(=O)N1CCC[C@@H](Nc2nnc(C(N)=O)c(Nc3ccc(-c4nn[nH]n4)cc3)n2)C1 [Example E-64, (R)-5-(4-(2H-tetrazol-5-yl)phenylamino)-3-(1-acryloylpiperidin-3-ylamino)-1,2,4-triazine-6-carboxamide] | ≥ 8.00 | 7.00 to 8.00 | ≥ 8.00 | ≥ 8.00
C=CC(=O)N1CCC[C@@H](Nc2nnc(C(N)=O)c(Nc3ccc(C4(C#N)CCCC4)cc3)n2)C1 [Example E-46, (R)-3-(1-acryloylpiperidin-3-ylamino)-5-(4-(1-cyanocyclopentyl)phenylamino)-1,2,4-triazine-6-carboxamide] | ≥ 8.00 | ≥ 8.00 | ≥ 8.00 | ≥ 8.00
C=CC(=O)N1CC[C@@H](N(C)c2cnc(C(N)=O)c(Nc3ccc(-n4nccn4)cc3)n2)C1 [Example E-116, (R)-3-(4-(2H-1,2,3-triazol-2-yl)phenylamino)-5-((1-acryloylpyrrolidin-3-yl)(methyl)amino) pyrazine-2-carboxamide] | ≥ 8.00 | ≥ 8.00 | 7.00 to 8.00 | ≥ 8.00
C=CC(=O)N1CCC[C@@H](Nc2nnc(C(N)=O)c(Nc3ccc(S(C)(=O)=O)cc3)n2)C1 [Example E-47, (R)-3-(1-acryloylpiperidin-3-ylamino)-5-(4-(methylsulfonyl)phenyl-amino)-1,2,4-triazine-6-carboxamide] | ≥ 8.00 | ≥ 8.00 | ≥ 8.00 | ≥ 8.00
C=CC(=O)N1CCC[C@@H](Nc2nnc(C(N)=O)c(Nc3ccc(-c4nccs4)cc3)n2)C1 [Example E-63, (R)-3-(1-acryloylpiperidin-3-ylamino)-5-(4-(thiazol-2-yl)phenylamino)-1,2,4-triazine-6-carboxamide] | ≥ 8.00 | 7.00 to 8.00 | ≥ 8.00 | ≥ 8.00
C=CC(=O)N1CC[C@@H](N(C)c2cnc(C(N)=O)c(Nc3cnn(C)c3)n2)C1 [Example E-119, (R)-5-((1-acryloylpyrrolidin-3-yl)(methyl)amino)-3-(1-methyl-1H-pyrazol-4-ylamino)pyrazine-2-carboxamide] | ≥ 8.00 | ≥ 8.00 | 7.00 to 8.00 | ≥ 8.00
C=CC(=O)N1CC[C@@H](N(C)c2cnc(C(N)=O)c(Nc3ccc(-c4ncccn4)cc3)n2)C1 [Example E-117, (R)-5-((1-acryloylpyrrolidin-3-yl)(methyl)amino)-3-(4-(pyrimidin-2-yl)phenylamino)pyrazine-2-carboxamide] | ≥ 8.00 | ≥ 8.00 | 7.00 to 8.00 | ≥ 8.00
C=CC(=O)N1CCC[C@@H](Nc2nnc(C(N)=O)c(Nc3cccc(-c4ncco4)c3)n2)C1 [Example E-65, (R)-3-(1-acryloylpiperidin-3-ylamino)-5-(3-(oxazol-2-yl)phenylamino)-1,2,4-triazine-6-carboxamide] | ≥ 8.00 | 7.00 to 8.00 | – | ≥ 8.00
C=CC(=O)N1CC[C@@H](N(C)c2cnc(C(N)=O)c(Nc3ccc(C4CCN(C)CC4)cc3)n2)C1 [Example E-115, (R)-5-((1-acryloylpyrrolidin-3-yl)(methyl)amino)-3-(4-(1-methylpiperidin-4-yl)phenylamino)pyrazine-2-carboxamide] | ≥ 8.00 | ≥ 8.00 | ≥ 8.00 | ≥ 8.00
C=CC(=O)N1CCC[C@@H](Nc2nnc(C(N)=O)c(Nc3ccc(N4CCOCC4=O)cc3)n2)C1 [Example E-62, (R)-3-(1-acryloylpiperidin-3-ylamino)-5-(4-(3-oxomorpholino)phenyl-amino)-1,2,4-triazine-6-carboxamide] | ≥ 8.00 | ≥ 8.00 | 7.00 to 8.00 | ≥ 8.00
C=CC(=O)N1CCC[C@@H](Nc2nnc(C(N)=O)c(Nc3cccc(C(=O)NC4CC4)c3)n2)C1 [Example E-84, (R)-3-(1-acryloylpiperidin-3-ylamino)-5-(3-(cyclopropyl-carbamoyl)phenyl-amino)-1,2,4-triazine-6-carboxamide] | ≥ 8.00 | 7.00 to 8.00 | – | ≥ 8.00
Cc1cc(Nc2nc(N(C)[C@@H]3CCN(C(=O)c4ccc(C(O)(C(F)(F)F)C(F)(F)F)cc4)C3)nnc2C(N)=O)sn1 [Example E-13, (R)-3-((1-(4-(1,1,1,3,3,3-hexafluoro-2-hydroxypropan-2-yl)benzoyl)pyrrolidin-3-yl)(methyl)amino)-5-(3-methylisothiazol-5-ylamino)-1,2,4-triazine-6-carboxamide] | 7.00 to 8.00 | 6.00 to 7.00 | – | 6.00 to 7.00
C=CC(=O)N1CC[C@@H](N(C)c2cnc(C(N)=O)c(Nc3ccc(-c4ncco4)cc3)n2)C1 [Example E-118, (R)-5-((1-acryloylpyrrolidin-3-yl)(methyl)amino)-3-(4-(oxazol-2-yl)phenylamino)pyrazine-2-carboxamide] | ≥ 8.00 | ≥ 8.00 | 7.00 to 8.00 | ≥ 8.00
C=CC(=O)N[C@@H]1CCCN(c2cnc(C(N)=O)c(Nc3cnn(C)c3)n2)[C@@H]1C [Example E-98, 5-((2R,3R)-3-acrylamido-2-methylpiperidin-1-yl)-3-(1-methyl-1H-pyrazol-4-ylamino)pyrazine-2-carboxamide] | ≥ 8.00 | 6.00 to 7.00 | 6.00 to 7.00 | ≥ 8.00
C=CC(=O)N1CCC[C@@H](Nc2nnc(C(N)=O)c(Nc3cccc(C(=O)NCc4ccccc4)c3)n2)C1 [Example E-86, (R)-3-(1-acryloylpiperidin-3-ylamino)-5-(3-(benzyl-carbamoyl)phenyl-amino)-1,2,4-triazine-6-carboxamide] | ≥ 8.00 | 7.00 to 8.00 | – | ≥ 8.00
C=CC(=O)NC[C@@H]1CCCCN1c1nnc(C(N)=O)c(Nc2ccc(C(C)C)cc2)n1 [Example E-89, (S)-3-(2-(acrylamido-methyl)piperidin-1-yl)-5-(4-isopropyl-phenylamino)-1,2,4-triazine-6-carboxamide] | 6.00 to 7.00 | 5.00 to 6.00 | – | 6.00 to 7.00
C=CC(=O)N1CCC[C@@H](Nc2nnc(C(N)=O)c(Nc3cnn(C)c3)n2)C1 [Example E-73, (R)-3-(1-acryloylpiperidin-3-ylamino)-5-(1-methyl-1H-pyrazol-4-ylamino)-1,2,4-triazine-6-carboxamide] | ≥ 8.00 | ≥ 8.00 | – | ≥ 8.00
C=CC(=O)N1CCC[C@@H](Nc2nnc(C(N)=O)c(Nc3ccc(Cn4cncn4)cc3)n2)C1 [Example E-52, (R)-5-(4-((1H-1,2,4-triazol-1-yl)methyl)phenyl-amino)-3-(1-acryloylpiperidin-3-ylamino)-1,2,4-triazine-6-carboxamide] | ≥ 8.00 | ≥ 8.00 | – | ≥ 8.00
C=CC(=O)N1CCC[C@@H](Nc2nnc(C(N)=O)c(Nc3cccc(Cl)c3)n2)C1 [Example E-75, (R)-3-(1-acryloylpiperidin-3-ylamino)-5-(3-chlorophenylamino)-1,2,4-triazine-6-carboxamide] | ≥ 8.00 | 7.00 to 8.00 | – | ≥ 8.00
C=CC(=O)N1CCC[C@@H](Nc2nnc(C(N)=O)c(Nc3ccc(-n4cncn4)cc3)n2)C1 [Example E-69, (R)-5-(4-(1H-1,2,4-triazol-1-yl)phenylamino)-3-(1-acryloylpiperidin-3-ylamino)-1,2,4-triazine-6-carboxamide] | ≥ 8.00 | 7.00 to 8.00 | – | ≥ 8.00
C=CC(=O)NC[C@H]1CCCCN1c1nnc(C(N)=O)c(Nc2ccc(C(C)C)cc2)n1 [Example E-88, (R)-3-(2-(acrylamido-methyl)piperidin-1-yl)-5-(4-isopropyl-phenylamino)-1,2,4-triazine-6-carboxamide] | ≥ 8.00 | 6.00 to 7.00 | – | 7.00 to 8.00
